Measurements published in publication PMC9132125 (Journal of natural products, 2016).

Columns and labels:
[1] = test system: KCL-22 and T315I KCL-22 CML cell lines; assay: Biological screening at 1 μM on the two CML cell lines; assay type: cell-based, human
[2] = test system: T315I mutant KCL-22 CML cells; assay: MTS cell viability assay, imatinib-resistant T315I mutant KCL-22 CML cells; assay type: cell-based, human; details: 48 h exposure
c-Src = c-Src (Homo sapiens, UniProt P12931); assay: Kinase assay in vitro; assay type: biochemical; details: recombinant protein, 33P-ATP
GSK-3β = details: read-out: GSK-3β IC50; previously published; cited from earlier work

c-Src, sequence (P12931 whole entry): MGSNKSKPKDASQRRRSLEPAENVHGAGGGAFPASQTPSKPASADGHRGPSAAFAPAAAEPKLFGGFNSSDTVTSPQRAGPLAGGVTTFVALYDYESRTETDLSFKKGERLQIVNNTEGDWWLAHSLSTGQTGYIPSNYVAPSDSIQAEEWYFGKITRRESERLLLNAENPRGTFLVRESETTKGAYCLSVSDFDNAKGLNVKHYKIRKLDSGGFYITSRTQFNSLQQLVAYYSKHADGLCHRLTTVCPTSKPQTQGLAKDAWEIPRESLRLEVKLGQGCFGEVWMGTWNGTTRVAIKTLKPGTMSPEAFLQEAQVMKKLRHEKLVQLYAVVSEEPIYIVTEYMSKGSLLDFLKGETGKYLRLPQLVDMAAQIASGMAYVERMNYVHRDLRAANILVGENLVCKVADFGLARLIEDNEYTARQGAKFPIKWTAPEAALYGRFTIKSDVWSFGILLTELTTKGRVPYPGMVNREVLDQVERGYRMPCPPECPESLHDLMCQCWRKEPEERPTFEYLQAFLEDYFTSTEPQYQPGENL

O=C1Nc2ccccc2/C1=C1/Nc2ccccc2C1=O [compound 1, Indirubin, reference compound]
cytotoxic activity in the screening (in words) [1]: loss of activity

O=C1Nc2ccccc2/C1=C1/Nc2ccccc2/C1=N\O [compound 2]
cytotoxic activity in the screening (in words) [1]: loss of activity

CN(CCO/N=C1/C(=C2/C(=O)Nc3cc(Br)ccc32)Nc2ccccc21)CC(O)CO (stereo not drawn) [compound 17]
T315I mutant KCL-22 IC50 range (in words) [2]: submicromolar range | c-Src IC50 range (in words) (c-Src): picomolar | IC50 (GSK-3β): 67 nM

CN(CCO/N=C1/C(=C2/C(=O)Nc3cc(Br)ccc32)Nc2ccccc21)CC(O)CO.Cl (stereo not drawn) [compound 18]
T315I mutant KCL-22 IC50 range (in words) [2]: submicromolar range | c-Src IC50 range (in words) (c-Src): picomolar | IC50 (GSK-3β): 23 nM

O=C1Nc2cc(Br)ccc2/C1=C1/Nc2ccccc2/C1=N\OCCN1CCCC1 [compound 19]
T315I mutant KCL-22 IC50 range (in words) [2]: submicromolar range | c-Src IC50 range (in words) (c-Src): nanomolar | IC50 (GSK-3β): 26 nM

Cl.O=C1Nc2cc(Br)ccc2/C1=C1/Nc2ccccc2/C1=N\OCCN1CCCC1 [compound 20]
T315I mutant KCL-22 IC50 range (in words) [2]: submicromolar range | c-Src IC50 range (in words) (c-Src): nanomolar | IC50 (GSK-3β): 54 nM

Cl.Cl.O=C1Nc2cc(Br)ccc2/C1=C1/Nc2ccccc2/C1=N\OCCN1CCNCC1 [compound 22]
T315I mutant KCL-22 IC50 range (in words) [2]: submicromolar range | c-Src IC50 range (in words) (c-Src): picomolar

COCCN1CCN(CCO/N=C2/C(=C3/C(=O)Nc4cc(Br)ccc43)Nc3ccccc32)CC1 [compound 27]
T315I mutant KCL-22 IC50 range (in words) [2]: submicromolar range | c-Src IC50 range (in words) (c-Src): nanomolar | IC50 (GSK-3β): 110 nM

COCCN1CCN(CCO/N=C2/C(=C3/C(=O)Nc4cc(Br)ccc43)Nc3ccccc32)CC1.Cl.Cl [compound 28]
T315I mutant KCL-22 IC50 range (in words) [2]: submicromolar range | c-Src IC50 range (in words) (c-Src): nanomolar | IC50 (GSK-3β): 200 nM

O=C1Nc2cc(Br)ccc2/C1=C1/Nc2ccccc2/C1=N\OCCN1CCN(CCOCCO)CC1 [compound 29]
c-Src IC50 range (in words) (c-Src): picomolar | IC50 (GSK-3β): 14 nM

Cl.Cl.O=C1Nc2cc(Br)ccc2/C1=C1/Nc2ccccc2/C1=N\OCCN1CCN(CCOCCO)CC1 [compound 30]
T315I mutant KCL-22 IC50 range (in words) [2]: submicromolar range

O=C1Nc2ccccc2/C1=C1/Nc2cc(Br)ccc2C1=O [compound 57]
cytotoxic activity in the screening (in words) [1]: inactive

O=C1Nc2ccccc2/C1=C1/Nc2cc(Br)ccc2/C1=N\O [compound 58]
cytotoxic activity in the screening (in words) [1]: inactive
